How the values were obtained:
[1] = Weight loss after P. aeruginosa lung infection; assay type: in vivo, mice; settings: for Mean weight loss (% of initial weight): mean ± SEM
Experimental: (§1) Fenretinide Diet Supplementation. Examples 2 to 6: fenretinide (Sigma-Aldrich, Oakville, ON) powder was resuspended in 95% ethanol and subsequently incorporated in the Peptamen liquid diet. It was protected from light and kept at 4° C. before being given to the mice (5 mg/kg per day per mouse). Mock-treated diets were prepared similarly by adding ethanol to the Peptamen diet but omitting the fenretinide supplementation. The diet was given every morning for 28 consecutive days with specific monitoring of the quantity consumed by the mice in each cage. Examples 7 to 12: fenretinide powder was kindly provided by Dr. Robert Smith (NIH; Bethesda, Md., USA). Fenretinide was resuspended in 95% ethanol to make a 2 μg/μL concentration. Approximately 40 μL of this preparation was incorporated into the Peptamen liquid diet (5 mg/kg per day per mouse). The prepared food containing fenretinide was then stored in the dark at 4° C. for no more than 3 hours prior to being administered to the mice. To ensure that the entire drug dose was consumed, the mice were given 10 mL of fenretinide-treated Peptamen, which represents ⅔ of the daily mouse food consumption, in the late afternoon. The remaining 5 mL of Peptamen (without fenretinide) was given the following morning. Mice were treated twice a week for 4 weeks. During the treatment period each mouse was kept in a separate cage (including WT mice) and was monitored to ensure that the entire amount of Peptamen containing the fenretinide or with out was consumed. The diet for the mock-treated control group was prepared and administered similarly to that described above, by adding the same volume of ethanol to the Peptamen diet but omitting the fenretinide supplementation.
Mouse Lung Infection. Mice were anaesthetized with a combination of ketamine (7.5 mg/mL) and xylazine (0.5 mg/mL) administered intraperitoneally at a dose of 20 mL/kg of body weight. Once the mouse was successfully anaesthetized, the animal was installed under binoculars (Microscope M650, Wild Leitz, Willowdale, ON) in the vertical position and held on a restraining board by holding the animal by its upper incisor teeth (Guilbault, et al. (2005) supra). The tongue was then gently pulled to the side of the mouth and a 26-G gavage needle was inserted into the mouth and guided through the pharynx gently touching the vocal cords to see the lumen of the trachea; the needle was then introduced into the trachea to reach the lung for the bilateral injection of the 50 microliter inoculum. After inoculation, the animal regained righting reflex within an hour. A final dose of 1×10^6 P. aeruginosa was used for infection using wild-type and Cftr-KO mice. Mice were monitored 3 times daily; the maximum weight loss allowed was 15%. Mice were sacrificed by CO2 overdose.

[2] = test system: cytokines/chemokines (IL-17, IL-1β, IL-6, IL-7, IL-9, IL-10, IL-15, G-CSF, MIP-1a, KC); experiment: Cytokine/chemokine levels in lung homogenates of infected mice; assay type: in vivo
Experimental: Lung Homogenates. Lungs from infected mice were harvested and homogenized for 60 seconds at high speed (homogenizer PT10135; Brinkmann Instruments Co., Mississauga, ON) in 4 mL of sterile PBS (INVITROGEN™). Serial, 10-fold dilutions of lung homogenates were plated on petri dishes containing TSA. The number of CFU per lung was counted after overnight incubation at 37° C. For cytokine measurements, lung homogenates were centrifuged at 1500×g at 4° C. for 10 minutes; the supernatants were then removed, aliquoted in new tubes and stored at −20° C. until assayed for cytokine concentrations.
Cytokine/chemokine measurements. The levels of 10 cytokines/chemokines (IL-1β, IL-6, IL-7, IL-9, IL-10, IL-15, IL-17, G-CSF (granulocyte colony-stimulating factor), MIP-1a (macrophage inflammatory protein 1 alpha), and N51/KC (cytokine-induced neutrophil chemoattractant), were assessed in lung homogenates prepared from infected animals with the Mouse Cytokine/Chemokine LINCOplex kit (Linco Research, Inc, St-Charles, Mo.) using Luminex™ technology and assayed with the Luminex100LS™ system by Linco Research, Inc. The cytokine detection limit for this assay was 3.2 pg/ml.

DHA and AA levels = experiment: Fatty acid analysis (DHA, AA, DHA/AA ratio) in lungs and plasma, 28 daily treatments; assay type: in vivo, mice
Experimental: as §1
Fatty Acid Analysis. Minced tissues isolated from mice were immersed in 1 mM BHA in chloroform and methanol (2:1 vol). For plasma samples (mouse and human), 100 μL of plasma was added to 1 mL of BHA. Lipids were then extracted from all samples according to standard methods (Folch, et al. (1957) J. Biol. Chem. 226:497-509). Identification of phospholipids was carried out by thin-layer chromatography extraction (Van Handel & Zilversmit (1957) J. Lab. Clin. Med. 50:152-157). Also, fractionated lipids were dried and resuspended in heptane:methanol:sulfuric acid (5:1:1) for free fatty acid extraction. Diazomethane was used to esterify the fatty acids released and the esters were identified by GC/MS (Hewlett Packard 5880A, WCOT capillary column (Supelco-10, 35 m×0.5 mm, 1 μm thick)) using commercial standards (Sigma-Aldrich).

[3] = test system: osteoblasts and osteoclasts; experiment: Osteoblast and osteoclast counts in femur (H&E, TRAP); assay type: in vivo, mice
Experimental: as §1, with “The remaining 5 mL of Peptamen (without fenretinide) was given the following morning. Mice were treated twice a week for 4 weeks.” left out, “The diet for the mock-treated control group was prepared and administered similarly to that described above, by adding the same volume of ethanol to the Peptamen diet but omitting the fenretinide supplementation.” left out

[4] = cited from earlier work
[5] = fenretinide-treated Cftr-KO infected mice, lungs and plasma
[6] = wild-type mice, lungs and plasma

Question: Which “Mean weight loss (% of initial weight)” value ([1]; Cftr-KO mice, day 1 post-infection) does the source give for CC1=C(/C=C/C(C)=C/C=C/C(C)=C/C(=O)Nc2ccc(O)cc2)C(C)(C)CCC1 [fenretinide, all-trans-N-(4-hydroxyphenyl) retinamide] here?
Answer: Its value is −4.0 ± 1.1 % of initial weight.

Question: What about the “Mean weight loss (% of initial weight)” value ([1]; Cftr-KO mice, day 2 post-infection) of the same compound?
Answer: Its value is −12.9 ± 0.9 % of initial weight.

Question: And the “Mean weight loss (% of initial weight)” value ([1]; Cftr-KO mice, day 3 post-infection)?
Answer: The value was −15.3 ± 1.8 % of initial weight.

Question: And the “Mean weight loss (% of initial weight)” value ([1]; Wild-type mice, day 1 post-infection)?
Answer: Its value is −4.8 ± 0.4 % of initial weight.

Question: What about the “Mean weight loss (% of initial weight)” value ([1]; Wild-type mice, day 2 post-infection) of the same compound?
Answer: Its value is −9.9 ± 0.5 % of initial weight.

Question: What about the “Mean weight loss (% of initial weight)” value ([1]; Wild-type mice, day 3 post-infection) of the same compound?
Answer: Its value is −11.1 ± 1.2 % of initial weight.

Question: And the “Effect on mean weight loss, fenretinide-treated vs mock-treated” value ([1]; day 1 to day 3 post-infection)?
Answer: Its value is “no significant difference”.

Question: And the “Levels of IL-1β, IL-9, KC and MIP-1a vs mock-treated” value ([2]; Cftr-KO mice, not statistically significant)?
Answer: Its value is “trend towards decreased levels”.

Question: What about the “IL-17 level, decrease vs Cftr-KO controls” value ([2]; Cftr-KO mice, p=0.049) of the same compound?
Answer: Its value is 2.9 fold.

Question: And the “All cytokines tested, fenretinide-treated vs untreated” value ([2]; WT mice)?
Answer: The value was “no difference”.

Question: And the “IL-6, G-CSF, IL-15, IL-10 and IL-7 levels” value ([2]; time point tested)?
Answer: Its value is “not affected”.

Question: What about the “AA levels in the ileum, liver and pancreas” value (DHA and AA levels; Cftr-KO mice) of the same compound?
Answer: Its value is “decrease”.

Question: What about the “Difference in median DHA/AA index ratio, wild-type/Cftr-KO” value (DHA and AA levels; FEN-treated mice (untreated = 67-fold)) of the same compound?
Answer: Its value is 7 fold.

Question: What about the “Lowering of the difference in median DHA/AA index ratio between wild-type and Cftr-KO” value (DHA and AA levels; FEN-treated vs untreated) of the same compound?
Answer: Its value is “approximately 10 fold”.

Question: What about the “AA levels, median vs infected Cftr-KO untreated controls” value (DHA and AA levels; [5]) of the same compound?
Answer: The value was “lower median”.

Question: And the “Concentration of DHA incorporated in phospholipids, median vs wild-type infected controls” value (DHA and AA levels; [5])?
Answer: The value was “lower median”.

Question: And the “Free DHA concentration, median vs wild-type infected controls” value (DHA and AA levels; fenretinide-treated Cftr-KO infected mice, plasma)?
Answer: Its value is “higher median”.

Question: And the “Free DHA (percentile), median vs wild-type untreated uninfected controls” value (DHA and AA levels; fenretinide-treated infected wild-type mice, lungs and plasma)?
Answer: The value was “significant difference”.

Question: And the “DHA incorporated in phospholipids (percentile of total fatty acids), median vs untreated Cftr-KO” value (DHA and AA levels; infected Cftr-KO mice, lungs and plasma)?
Answer: Its value is “no difference”.

Question: What about the “DHA/AA median index ratio vs untreated Cftr-KO” value (DHA and AA levels; infected Cftr-KO mice, lungs and plasma (significant only in lungs)) of the same compound?
Answer: Its value is “increase”.

Question: And the “DHA incorporated in phospholipids (percentile of total fatty acids), median vs untreated wild-type” value (DHA and AA levels; [6])?
Answer: The value was “no difference”.

Question: What about the “DHA/AA median index ratio vs untreated wild-type” value (DHA and AA levels; [6]) of the same compound?
Answer: The value was “no effect”.

Question: And the “Number of osteoclasts, treated vs untreated” value ([3]; Cftr-KO and WT mice)?
Answer: The value was “No significant difference”.

Question: And the “Amount of osteoblasts vs untreated Cftr-KO” value ([3]; Cftr-KO mice, p<0.05)?
Answer: Its value is “increase”.

Question: And the “Generalized vascular damage in humans” value ([4]; clinical trials (Reynolds and Lemons 2001))?
Answer: Its value is “does not induce generalized vascular damage”.

Question: And the “Reversibility of side effects following discontinuation of the treatment” value ([4]; neuroblastoma subjects 2-21 years (Garaventa 2003))?
Answer: Its value is at most 7 days.

Question: And the “Subjects in whom side effects occurred” value ([4]; neuroblastoma subjects 2-21 years, oral once a day in 28-day courses (Garaventa 2003))?
Answer: Its value is 15 of the 45.

From US8680153B2, “Method for correcting a lipid imbalance in a subject” (The Royal Institution for the Advancement of …, priority 2005, dated 2014)
